Laboratory results taken from patent US8110585B2, “Bicyclic compound and pharmaceutical use thereof” (Takeda Pharmaceutical Company Limited, priority 2007, dated 2012).
pIC50: −log10 of the molar value.

Experiments:
[1] = biological target: T1, human melatonin 1 receptors (human MT1 receptors) (Homo sapiens, UniProt P48039); test: Melatonin receptor binding inhibitory test, 2-[125I] Iodomelatonin, MT1; conditions: membrane fraction of CHO-hMelR7 cells, 25° C. for 2.5 hr, read-out: binding inhibitory activity as IC50 value for MT1
T1 construct: expressed in transfected cells; membrane fraction
Description: (§1) Melatonin Receptor Binding Inhibitory Test
(1) Preparation of CHO-hMelR7 Cells expressing Human Melatonin 1 Receptors
A cDNA fragment (SEQ ID NO: 1) encoding full-length of human melatonin 1 receptors (human MT1 receptors) was incorporated into expression vector pAKKO-111H (former name pAKKO1.11H; Biochim Biophys Acta. Vol. 1219(2), pp. 251-259, 1994) to give plasmid pAKKO-hMelR7 for animal cell expression. CHO/dhfr-cells (ATCC, #CRL-9096) were plated at a concentration of 0.3×10^6 cells/dish in a 6 cm culture dish (Becton Dickinson), and cultured under the conditions of 37° C., 5% CO2 for 48 hr. The cells were transfected with pAKKO-hMelR7 plasmid DNA (5 μg) using Cellphect Transfection Kit (Amersham, #27-9268-01). The transfected cells were cultured in Dulbecco's modified Eagle medium (DMEM) (Sigma, #D6046) containing 10% dialyzed FBS (Biowest, #S180D), 1× Non-Essential Amino Acid (Invitrogen, #11140-050) and 50 μg/mL Gentamycin (Invitrogen, #15750-060), and the cell line that stably expressed the plasmid gene was selected. By a receptor binding assay using 2-[^125I] Iodomelatonin, CHO-hMelR7 cell line showing specific binding of 2-[^125I] Iodomelatonin was selected from the obtained clones.
(§2) (3) Preparation of Cellular Membrane Fraction of CHO Cell (CHO-hMelR7 and CHO-hMT2) Stably Expressing Human MT1 and MT2 Receptors
(§3) CHO-hMelR7 and CHO-hMT2 cells were plated using Cellfactory (Nunc, #170009) under the conditions of 1×10^8 cells/2000 mL/flask. The cells were grown to confluent, and recovered by the following method. As the medium for CHO-hMelR7 and CHO-hMT2, MEM a containing 10% FBS and penicillin/streptomycin was used. […]
(§4) The medium was discarded, cells were washed twice with 200 mL of EDTA/PBS(−), 200 mL of EDTA/PBS(−) was further added, and the cells were stood still at room temperature for 20 min until they were released. The cells were recovered in four 50 mL tubes (Becton Dickinson, #352070), and centrifuged at 1,500 rpm for 10 min at 4° C. using a low speed cooling centrifuge (Hitachi, CF7D2). The supernatant was discarded, the pellets in the four tubes were suspended in 10 mL of PBS(−), and combined in one tube (Becton Dickinson, #352070). The mixture was further centrifuged at 1,500 rpm for 10 min at 4° C., and the obtained pellets were suspended in 20 mL of ice-cooled homogenizing buffer [10 mM NaHCO3, 5 mM EDTA, Protease inhibitor Complete (Roche), pH 7.4]. The cell suspension was homogenized 3 times using a polytron homogenizer at 20,000 rpm for 30 sec. The obtained homogenate was centrifuged (2,000 rpm, 10 min, 4° C.) using a low speed cooling centrifuge. The supernatant was recovered in an ultracentrifugation tube and ultracentrifuged (40,000 rpm, 60 min, 4° C.) using an ultracentrifuge (Beckman, L-90K). To the obtained pellets was added a suspending buffer [50 mM Tris-HCl, 1 mM EDTA, Protease inhibitor Complete (Roche), pH 7.4], and the pellets were suspended by pipetting. The protein concentration of this suspension was measured, diluted to 2 mg/mL to give cellular membrane fractions of CHO-hMelR7 and CHO-hMT2 cells. The membrane fractions were dispensed to 1.5 mL tubes (Eppendorf, #0030120.086) by 100 μL, preserved in a freezer (−80° C.) and used for a binding assay. Protein was quantified using BCA protein assay kit (Pierce) with BSA as the standard.
(§5) (4) Preparation of Membrane Fraction Suspension
(§6) Immediately before use, the membrane fractions of CHO-hMelR7 and CHO-hMT2 cells of the above-mentioned (3) were diluted 20-fold with assay buffer (50 mM Tris-HCl, pH 7.7).
(§7) (5) Preparation of 2-[^125I] Iodomelatonin Solution
(§8) 2-[^125I] Iodomelatonin (#NEX236, PerkinElmer) was diluted with the assay buffer to 400 pM for MT1 and 1 nM for MT2.
The assay buffer (80 μL) of the above-mentioned (4) was added to each well of a 96-well plate (type 3363, Corning). Then, a test compound (compound solution diluted with DMSO to 200-fold of the final measurement concentration) was added by 2 μL. […]

[2] = biological target: T2, human melatonin 2 receptors (human MT2 receptors) (Homo sapiens, UniProt P49286); test: Melatonin receptor binding inhibitory test, 2-[125I] Iodomelatonin, MT2; conditions: membrane fraction of CHO-hMT2 cells, 25° C. for 2.5 hr, read-out: binding inhibitory activity as IC50 value for MT2
T2 construct: expressed in transfected cells; membrane fraction
T2 sequence (P49286 1-362): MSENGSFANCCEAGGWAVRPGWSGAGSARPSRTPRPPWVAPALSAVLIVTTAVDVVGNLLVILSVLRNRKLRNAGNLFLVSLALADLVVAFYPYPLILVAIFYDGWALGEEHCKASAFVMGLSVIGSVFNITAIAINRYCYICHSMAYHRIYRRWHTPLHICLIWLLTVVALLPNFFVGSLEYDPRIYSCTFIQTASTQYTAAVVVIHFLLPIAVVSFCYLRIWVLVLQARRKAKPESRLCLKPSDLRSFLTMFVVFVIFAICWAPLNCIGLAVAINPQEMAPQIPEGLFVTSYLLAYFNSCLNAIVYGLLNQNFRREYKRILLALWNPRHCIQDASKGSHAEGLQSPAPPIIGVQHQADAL
Description: as §1
(2) Preparation of CHO-hMT2 Cells Expressing Human Melatonin 2 Receptors
A cDNA fragment (SEQ ID NO: 2) encoding full-length of human melatonin 2 receptors (human MT2 receptors) was incorporated into expression vector pCMV-Script (Stratagene, #212220) to give the plasmid that was pCMV-human MT2 receptors expression vector for animal cell expression. CHO-K1 cells (ATCC, #CCL-61) were plated at the concentration of 1.5×10^5 cells/cm^2 in a 6 well plate (ASAHI TECHNO GLASS), and cultured under the conditions of 37° C., 5% CO2 for 24 hr. For gene transfection, solution obtained by blending pCMV-human MT2 receptors expression vector (1.9 μg), Lipofectamine Transfection Reagent (Invitrogen, #18324-012) (11.3 μL) and Minimum Essential Medium Eagle (MEM) medium (Sigma, M8042) (93.8 μL), and reacting at room temperature for 20 min was added to the cells per one well. The transfected cells were cultured in MEM medium containing 10% FBS (Life Technology) and 300 μg/mL Geneticin (GIBCO, #10131), and the cell line that stably expressed the plasmid gene was selected. By a receptor binding assay using 2-[^125I] Iodomelatonin, CHO-hMT2 cell line showing specific binding of 2-[^125I] Iodomelatonin was selected from the obtained clones.
as §2, §3, §4, §5, §6, §7, §8
The assay buffer (80 μL) of the above-mentioned (4) was added to each well of a 96-well plate (type 3363, Corning). […]

T1 sequence (P48039 whole entry): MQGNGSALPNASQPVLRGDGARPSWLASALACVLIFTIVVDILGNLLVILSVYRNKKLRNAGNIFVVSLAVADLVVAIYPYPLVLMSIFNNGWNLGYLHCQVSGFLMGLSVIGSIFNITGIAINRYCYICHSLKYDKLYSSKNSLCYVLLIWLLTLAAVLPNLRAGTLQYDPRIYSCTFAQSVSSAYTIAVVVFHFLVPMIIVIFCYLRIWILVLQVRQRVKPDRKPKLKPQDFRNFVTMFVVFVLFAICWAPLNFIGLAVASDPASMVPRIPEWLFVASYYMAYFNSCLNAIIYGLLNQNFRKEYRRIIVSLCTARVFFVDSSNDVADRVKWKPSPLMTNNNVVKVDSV

pIC50 [1] | pIC50 [2] | melting point [°C] | Compound
≥ 7.00 | ≥ 7.00 | 158 to 159 | CCC(=O)NC[C@@H]1C[C@H]1c1c(F)ccc2nn(C)cc12 (relative stereo) [Example 26, trans-N-{[2-(5-fluoro-2-methyl-2H-indazol-4-yl)cyclopropyl]methyl}propanamide]
≥ 7.00 | ≥ 7.00 | 145 to 147 | CC(=O)NC[C@@H]1C[C@H]1c1cccc2nn(C)cc12 [Example 11, N-{[(1R,2R)-2-(2-methyl-2H-indazol-4-yl)cyclopropyl]methyl}acetamide]
≥ 7.00 | ≥ 7.00 | 79 to 80 | CCC(=O)NC[C@H]1C[C@@H]1c1cccc2nn(C)cc12 [Example 12, N-{[(1S,2S)-2-(2-methyl-2H-indazol-4-yl)cyclopropyl]methyl}propanamide]
≥ 7.00 | ≥ 7.00 | 78 to 80 | CCC(=O)NC[C@@H]1C[C@H]1c1cccc2nn(C)cc12 [Example 13, N-{[(1R,2R)-2-(2-methyl-2H-indazol-4-yl)cyclopropyl]methyl}propanamide]
≥ 7.00 | ≥ 7.00 | 155 to 159 | CCn1cc2c(C3CC3CNC(C)=O)cccc2n1 (stereo not drawn) [Example 16, N-{[2-(2-ethyl-2H-indazol-4-yl)cyclopropyl]methyl}acetamide]
≥ 7.00 | ≥ 7.00 | 114 to 115 | CCC(=O)NCC1CC1c1cccc2nn(CC)cc12 (stereo not drawn) [Example 17, N-{[2-(2-ethyl-2H-indazol-4-yl)cyclopropyl]methyl}propanamide]
≥ 7.00 | ≥ 7.00 | 149 to 150 | CC(=O)NCC1CC1c1c(Cl)ccc2nn(C)cc12 (stereo not drawn) [Example 27, N-{[2-(5-chloro-2-methyl-2H-indazol-4-yl)cyclopropyl]methyl}acetamide]
≥ 7.00 | ≥ 7.00 | 152 to 153 | CCC(=O)NCC1CC1c1c(Cl)ccc2nn(C)cc12 (stereo not drawn) [Example 28, N-{[2-(5-chloro-2-methyl-2H-indazol-4-yl)cyclopropyl]methyl}propanamide]
≥ 7.00 | ≥ 7.00 | 135 to 137 | CC(=O)NCC1CC1c1c(Br)ccc2nn(C)cc12 (stereo not drawn) [Example 29, N-{[2-(5-bromo-2-methyl-2H-indazol-4-yl)cyclopropyl]methyl}acetamide]
≥ 7.00 | ≥ 7.00 | 119 to 121 | CCC(=O)NCC1CC1c1c(Br)ccc2nn(C)cc12 (stereo not drawn) [Example 30, N-{[2-(5-bromo-2-methyl-2H-indazol-4-yl)cyclopropyl]methyl}propanamide]

Continued, molecule first:

Compound | pIC50 [1] | pIC50 [2] | melting point [°C]
CCCC(=O)NC[C@@H]1C[C@H]1c1cccn2nc(C)cc12 (relative stereo) [Example 45, trans-N-{[2-(2-methylpyrazolo[1,5-a]pyridin-4-yl)cyclopropyl]methyl}butanamide] | ≥ 7.00 | ≥ 7.00 | 82 to 84
Cc1cc2c([C@@H]3C[C@H]3CNC(=O)C(F)(F)F)cccn2n1 (relative stereo) [Example 46, trans-2,2,2-trifluoro-N-{[2-(2-methylpyrazolo[1,5-a]pyridin-4-yl)cyclopropyl]methyl}acetamide] | ≥ 7.00 | ≥ 7.00 | 136 to 138
Cc1cc2c([C@@H]3C[C@H]3CNC(=O)C3CC3)cccn2n1 (relative stereo) [Example 47, trans-N-{[2-(2-methylpyrazolo[1,5-a]pyridin-4-yl)cyclopropyl]methyl}cyclopropanecarboxamide] | ≥ 7.00 | ≥ 7.00 | 133 to 135
CCNC(=O)NC[C@@H]1C[C@H]1c1cccn2nc(C)cc12 (relative stereo) [Example 51, trans-N-ethyl-N′-{[2-(2-methylpyrazolo[1,5-a]pyridin-4-yl)cyclopropyl]methyl}urea] | ≥ 7.00 | ≥ 7.00 | 108 to 110
CC(=O)NC[C@H]1C[C@@H]1c1cccc2nn(C)cc12 [Example 10, N-{[(1S,2S)-2-(2-methyl-2H-indazol-4-yl)cyclopropyl]methyl}acetamide] | ≥ 7.00 | ≥ 7.00 | 145 to 147
CC(=O)NC[C@@H]1C[C@H]1c1cccc2nn(C)c(F)c12 [Example 19, N-{[(1R,2R)-2-(3-fluoro-2-methyl-2H-indazol-4-yl)cyclopropyl]methyl}acetamide] | ≥ 7.00 | ≥ 7.00 | 138 to 139
CC(=O)NC[C@H]1C[C@@H]1c1c(F)ccc2nn(C)cc12 [Example 24, N-{[(1S,2S)-2-(5-fluoro-2-methyl-2H-indazol-4-yl)cyclopropyl]methyl}acetamide] | ≥ 7.00 | ≥ 7.00 | 120
CC(=O)NC[C@@H]1C[C@H]1c1c(F)ccc2nn(C)cc12 [Example 25, N-{[(1R,2R)-2-(5-fluoro-2-methyl-2H-indazol-4-yl)cyclopropyl]methyl}acetamide] | ≥ 7.00 | ≥ 7.00 | 120
CC(=O)NCC1CC1c1c(C)ccc2nn(C)cc12 (stereo not drawn) [Example 31, N-{[2-(2,5-dimethyl-2H-indazol-4-yl)cyclopropyl]methyl}acetamide] | ≥ 7.00 | ≥ 7.00 | 139 to 140
